By solubility is commonly meant the dissolved amount per volume that the medium holds. High values mean a readily soluble substance, low ones a poorly soluble substance.

Each structure is given as a SMILES string. Converted amounts (≈) assume the structure as drawn.

Series [1] is described as follows: Strain rate sensitivity (SRS). Type of series: physicochemical. Particulars: percent increase in yield pressure from slow to fast punch velocity. The source says: (§1) The mechanical properties of materials such as powders may be described in terms of the following characteristics: • (a) Hardness, or resistance to deformation, which can be measured by an indentation hardness test; • (b) Yield pressure (denoted Py and also known as yield stress), that is the point at which plastic deformation occurs, which can be measured by compaction studies; • (c) Strain Rate Sensitivity (SRS), that is the percent increase in yield pressure from slow to fast punch velocity, which can be measured by compaction studies; and • (d) Modulus of Elasticity, that is the ratio of stress to elongation (strain), which can be measured by numerous methods that are well known to a person skilled in the art of formulation.
Materials can, in general, be classified by the way in which they deform under compressive force, either by brittle fracture or by plastic deformation. The degree of deformation for a brittle material is independent of the rate and duration of the compression event (that is the compression applied), giving a strain rate sensitivity value for such materials of 0% (zero %). […]
The strain rate sensitivity of a material can be calculated using the mean yield pressures (Py) calculated for a material at fast (300 mm s^−1) and slow (0.033 mm s^−1) punch velocities. […]

Series [2] can be described thus: Yield pressure test (compaction simulator, Heckel plot). Type of series: physicochemical.
Source text: as §1
The yield pressure of a material can be determined by compressing it in a compaction simulator using a simple uniaxial saw tooth displacement/time profile and measuring the corresponding forces. The compaction simulator is fitted with 10 mm flat-faced punches and the material is compressed to zero porosity at a specific punch velocity. The force/displacement data generated are manipulated to produce a Heckel plot and the yield pressure is equivalent to the […] of the Heckel plot. This test can be performed at different punch velocities to determine the effect of scale-up on the deformation characteristics of the material. […]

Another series concerns VEGF RTK. The conditions noted are these: cited from earlier work.
For a further series, the system named is tumour models. Particulars: range of models, once-daily oral administration; cited from earlier work.
Another series can be described thus: physchem. The conditions noted are these: water, 25 °C.

Turning to `O.OC[C@H]1O[C@@H](O[C@H]2[C@H](O)[C@@H](O)C(O)O[C@@H]2CO)[C@H](O)[C@@H](O)[C@H]1O` (stereo partly shown) [Lactose monohydrate], the strain rate sensitivity in series [1] amounted to 19.4%.
In series [2], `COc1cc2c(Nc3ccc(Br)cc3F)ncnc2cc1OCC1CCN(C)CC1` [ZD6474, 4-(4-bromo-2-fluoroanilino)-6-methoxy-7-(1-methylpiperidin-4-ylmethoxy)quinazoline] returned a yield pressure of 22 MPa. Further, in series [1], the strain rate sensitivity is reported as 197%. Besides, the “inhibition of VEGF RTK” value with VEGF RTK is given as “potent inhibitor”. Also, in the series with tumour models, the anti-tumour activity result is listed as “broad-spectrum anti-tumour activity”. The solubility in “physchem” was 33 µg/mL (≈ 69.4 µM). The “solubility class per British Pharmacopoeia 2001-2002 classification system” value in the series “Solubility in water” is given as “practically insoluble”.

Values taken from US8067427B2 (AstraZeneca AB, priority 2004, dated 2011).
